According to ChEMBL document CHEMBL1201862, “PubChem BioAssay data set” (2004):
Active and inactive are the calls of the source. Rule as the data show it, for most assays here: actives have a measured EC50 and inactives only a lower limit.

Tests used:
[1] = cells; format: functional, cell-based
[2] = cells; format: functional, cell-based; remark: listed apart in the source
[3] = tested on: H9c2; experiment: cells; format: functional, cell-based; details: Rattus norvegicus, H9c2, Myocardium;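 also: confirmatory concentration-response retest of ultra-high-throughput screening hits for modulation of myocardial damage; cell death induced by hydrogen peroxide oxidative stress; compound pretreatment for 60 min then peroxide exposure for 2 h; potency is for protecting the cells against peroxide damage rather than for killing them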
[4] = cytotoxicity toward NIH3T3 fibroblasts, dose response, counter-screen, cell-based, ATP luminescence, mouse fibroblasts (AID 2010); format: functional;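 also: cells exposed to compound for about 90 hours before reading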
[5] = target: T1, Ubiquitin-conjugating enzyme E2 N (Homo sapiens, UniProt P61088); format: functional;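 also: Dose-response confirmation in a TR-FRET assay detecting UBC13-driven polyubiquitin chain formation, inhibition measured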
T1 sequence (P61088 whole entry): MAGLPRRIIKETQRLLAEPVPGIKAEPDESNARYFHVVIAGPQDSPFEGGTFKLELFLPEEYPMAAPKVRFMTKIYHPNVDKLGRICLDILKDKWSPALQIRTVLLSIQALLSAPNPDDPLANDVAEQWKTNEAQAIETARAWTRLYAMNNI

[6] = inhibitors of intracellular T. cruzi replication, confirmation, NIH3T3 host cells, beta-gal luminescence (AID 2044); format: functional, cell-based;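 also: intracellular parasites grown in NIH/3T3 mouse fibroblasts as host cells; luminescent beta-galactosidase reporter signal from transgenic T. cruzi replicating inside host cells; inhibitors lower the luminescence signal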
[7] = tested on: Streptococcus sp. 'group A'; experiment: growth inhibition of control SK(-) GAS strain, dose response, counter-screen for streptokinase expression inhibitor project, luminescence, kanamycin, BacTiterGlo, confirmation (AID 1900); format: functional, organism-based
[8] = Luminescence Cell-Based Dose Response HTS to Identify Activators of Luciferase Translation or Activity in H4 […] Cells. [Related pubchem assays: 1829 (Project Summary), 1814 (Primary HTS)]; format: functional
[9] = Luminescence Cell-Based Dose Confirmation HTS to Identify Activators of 5'UTR Stem-Loop Driven Alpha-Synuclein mRNA Translation in H4 Neuroglioblastoma Cells. [Related pubchem assays: 1829 (Project Summary), 1814 (Primary HTS)]; format: functional
[10] = tested on: Streptococcus; experiment: Group A Streptococcus viability loss, dose response, counter-screen for streptokinase expression inhibitor project, luminescence, BacTiterGlo (AID 1915); format: functional, organism-based;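 also: potency for reduction of bacterial viability or growth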
[11] = target: T2, Streptokinase A (Streptococcus pyogenes serotype M1, UniProt P10520); experiment: S. pyogenes streptokinase expression inhibitors, potency, dose response, plasminogen activation absorbance, OD405 (AID 1914); format: functional, Streptococcus pyogenes M1 GAS;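 also: secreted streptokinase activity via plasminogen activation per viability signal from cell pellet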
T2 sequence (P10520 whole entry): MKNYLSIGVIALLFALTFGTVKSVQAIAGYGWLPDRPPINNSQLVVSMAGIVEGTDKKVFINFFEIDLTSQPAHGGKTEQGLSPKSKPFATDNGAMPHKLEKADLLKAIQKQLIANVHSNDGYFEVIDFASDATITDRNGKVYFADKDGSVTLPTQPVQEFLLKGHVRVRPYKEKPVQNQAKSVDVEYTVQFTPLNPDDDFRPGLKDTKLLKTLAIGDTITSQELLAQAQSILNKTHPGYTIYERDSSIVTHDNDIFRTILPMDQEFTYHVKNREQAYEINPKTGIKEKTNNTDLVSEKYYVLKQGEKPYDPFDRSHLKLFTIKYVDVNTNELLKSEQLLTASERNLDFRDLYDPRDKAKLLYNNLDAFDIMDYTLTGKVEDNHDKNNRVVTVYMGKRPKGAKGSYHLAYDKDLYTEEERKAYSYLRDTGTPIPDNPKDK

[12] = tested on: H4; experiment: Luminescence Cell-Based Dose Response HTS to Identify Activators of 5'UTR Stem-Loop Driven Prion Protein mRNA Translation in H4 Neuroglioblastoma Cells. [Related pubchem assays: 1829 (Project Summary), 1814 (Primary HTS)]; format: functional; details: Homo sapiens
[13] = target: FAD-linked sulfhydryl oxidase ALR (Homo sapiens, UniProt P55789); experiment: inhibitors of human ALR sulfhydryl oxidase, dose response, biochemical, H2O2 detection, luminescence, cherry-pick (AID 493248)
Chain of FAD-linked sulfhydryl oxidase ALR (P55789 whole entry): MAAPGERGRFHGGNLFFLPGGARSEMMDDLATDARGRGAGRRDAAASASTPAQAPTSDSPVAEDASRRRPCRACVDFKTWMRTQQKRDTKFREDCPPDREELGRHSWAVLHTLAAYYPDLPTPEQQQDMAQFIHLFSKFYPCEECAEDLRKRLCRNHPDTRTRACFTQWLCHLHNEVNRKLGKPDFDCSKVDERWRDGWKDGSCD

[14] = THP-1 cell cytotoxicity, dose response, cytotoxicity control for non-replicating M. tuberculosis project (AID 489025); format: functional
[15] = cells; format: functional
[16] = Vero E6 cell cytotoxicity, dose response, cytotoxicity control for non-replicating M. tuberculosis project, secondary assay (AID 492998); format: functional, VeroE6; details: Vero C1008
[17] = target: T3, Corticotropin-releasing factor receptor 2/Corticotropin-releasing factor-binding protein (Homo sapiens, UniProt P24387+Q13324); experiment: activators of CRF receptor 2 with binding protein – uHTS hits, confirmation (AID 602473); format: functional; details: read-out: EC50_Mean
T3 sequence (Q13324 whole entry): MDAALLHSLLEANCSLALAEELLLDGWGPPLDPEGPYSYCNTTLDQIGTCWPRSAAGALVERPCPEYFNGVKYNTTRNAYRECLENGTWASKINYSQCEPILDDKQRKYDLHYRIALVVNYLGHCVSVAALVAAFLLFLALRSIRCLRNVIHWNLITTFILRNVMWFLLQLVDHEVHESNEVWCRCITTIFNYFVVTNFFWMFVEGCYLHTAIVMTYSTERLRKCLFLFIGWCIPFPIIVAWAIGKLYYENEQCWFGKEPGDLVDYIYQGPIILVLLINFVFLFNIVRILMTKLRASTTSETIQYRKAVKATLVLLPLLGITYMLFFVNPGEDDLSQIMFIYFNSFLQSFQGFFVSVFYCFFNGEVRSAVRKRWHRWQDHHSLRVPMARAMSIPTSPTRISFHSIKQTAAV
T3 sequence (P24387 whole entry): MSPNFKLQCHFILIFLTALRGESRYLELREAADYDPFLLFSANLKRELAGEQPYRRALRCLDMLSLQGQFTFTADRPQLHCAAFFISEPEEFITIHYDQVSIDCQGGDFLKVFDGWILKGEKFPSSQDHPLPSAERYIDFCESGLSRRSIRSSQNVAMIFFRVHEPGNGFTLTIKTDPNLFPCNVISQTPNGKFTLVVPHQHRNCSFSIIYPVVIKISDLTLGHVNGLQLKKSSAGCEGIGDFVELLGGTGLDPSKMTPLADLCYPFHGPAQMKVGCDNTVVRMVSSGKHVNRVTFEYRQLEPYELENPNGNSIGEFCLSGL

[18] = target: T3, Corticotropin-releasing factor receptor 2/Corticotropin-releasing factor-binding protein; experiment: Dose Response confirmation of uHTS hits for small molecule antagonists of the CRF-binding protein and CRF-R2 receptor complex.; format: functional; details: read-out: IC50_Mean
[19] = inhibitors of SNCA 5'UTR-driven reporter translation, confirmation, H4 neuroglioma cells, luminescence (AID 1988); format: functional, cell-based
[20] = inhibitors of firefly luciferase expression or activity, dose response, H4 neuroglioma cells, luminescence (AID 1990); format: functional, cell-based
[21] = Luminescence Cell-Based Dose Response HTS to Identify Inhibitors of 5'UTR Stem-Loop Driven Prion Protein mRNA Translation in H4 Neuroglioblastoma Cells. [Related pubchem assays: 1827 (Project Summary), 1813 (Primary HTS)]; format: functional

Compound: O=C(CCN1CCN(c2ccccc2)CC1)N/N=C/c1ccccc1O
- EC50 [1]: 91.8 µM (active)
- EC50 [2]: > 350 µM (not active)

Compound: CC(=O)Nc1cccc(-c2cc(NC(C)=O)c3ncc(-c4ccccc4)n3c2)c1
- IC50 [3]: > 79 µM (inactive)

Compound: COc1ccc2sc(N(CCCN(C)C)C(=O)c3ccc(S(=O)(=O)N(C)Cc4ccccc4)cc3)nc2c1
- EC50 [4]: > 60 µM (not active)
- IC50 [5]: > 20 µM (inactive)
- EC50 [6]: 0.185 µM (active)

Compound: CNCC(O)c1cc(F)c(OCc2ccccc2)c(OCc2ccccc2)c1F (stereo not drawn)
- IC50 [5]: > 20 µM (inactive)

Compound: O=C(Cn1[nH]c(=O)c2ccccc2c1=O)OCC(=O)N(Cc1ccccc1)Cc1ccccc1
- IC50 [3]: 36 µM (inactive)

Compound: Cc1nc(SCC(=O)c2cccs2)c2oc3ccccc3c2n1
- EC50 [7]: 21.2 µM (active)
- EC50 [8]: 16 µM (active)
- EC50 [9]: 21.5 µM (active)
- EC50 [10]: 20.1 µM (active)
- EC50 [11]: > 150 µM (not active)
- EC50 [12]: 68 µM (active)

Compound: CCn1c(S)nnc1CCn1c2ccccc2c2ccccc21
- AC50 [13]: > 100 µM (inactive)

Compound: C/C(=N\NC(=O)c1ccncc1)c1ccc(N(C)C)cc1
- AC50 [13]: 5.01 µM (active)

Compound: COc1ccc(C(CCN2CCCC(C)C2)c2c(OC)cc(OC)c3c(-c4ccccc4)cc(=O)oc23)cc1 (stereo not drawn)
- IC50 [5]: > 20 µM (inactive)

Compound: O=C(NC1CCCCC1)c1nc(O)c2nnn(Cc3ccccc3Cl)c2n1
- CC50 [14]: > 40 µM (active)
- IC50 [15]: 29.9 µM (active)
- CC50 [16]: 19.9 µM (active)

Compound: COc1cc(-c2cc(NC(C)=O)c3ncc(-c4ccc(C(C)=O)cc4)n3c2)cc(OC)c1OC
- IC50 [3]: > 79 µM (inactive)

Compound: COc1cccc(CNc2nc(-c3cccnc3)nc3ccccc23)c1
- EC50 [17]: > 53 µM (inactive)
- IC50 [5]: > 20 µM (inactive)
- IC50 [18]: > 47.1 µM (inactive)

Compound: C=C(C)Cn1c(CCNC(=O)C(C)C)nc2ccccc21
- EC50 [1]: > 350 µM (not active)
- EC50 [2]: > 350 µM (not active)

Compound: O=C1N[C@H]2CC=C[C@H]2Nc2ccccc21
- IC50 [3]: 44.8 µM (inactive)

Compound: CC(C)N1CCc2c(sc(NC(=O)c3ccc(S(=O)(=O)N4CCc5ccccc54)cc3)c2C(N)=O)C1
- IC50 [5]: > 20 µM (inactive)

Compound: CCCN1Cc2cccc(C(N)=O)c2C1=O
- IC50 [3]: > 79 µM (inactive)

Compound: C[C@H](CO)N1C[C@H](C)[C@@H](CN(C)S(=O)(=O)c2ccccc2)Oc2ccc(NC(=O)Nc3ccccc3)cc2C1=O
- IC50 [3]: 13.3 µM (active)

Compound: CCOC(=O)c1cc2c(ccn2C)n1CC(=O)N1CCN(c2ccccc2)CC1
- EC50 [1]: > 350 µM (not active)
- EC50 [2]: > 350 µM (not active)

Compound: O=C(NC(O)C(=O)c1cccs1)c1cccnc1 (stereo not drawn)
- IC50 [3]: > 79 µM (inactive)

Compound: O=C(NCN1CCN(c2ccccc2)CC1)c1cnccn1
- AC50 [13]: 4.03 µM (active)

Compound: CCCCc1c(C)nc(N)nc1O
- EC50 [1]: > 350 µM (not active)
- EC50 [2]: > 350 µM (not active)

Compound: O=C1NC(=O)N(Cc2ccccc2Cl)C(=O)/C1=C/c1ccc[nH]1
- CC50 [14]: 9.35 µM (active)
- IC50 [15]: 1.04 µM (active)
- CC50 [16]: 9.48 µM (active)

Compound: O=C(CSc1nnc(-c2cccnc2)o1)c1cc2ccccc2oc1=O
- IC50 [3]: > 79 µM (inactive)

Compound: Cc1ccc(NC2CCCN(C(=O)CCc3ccncc3)C2)cc1C (stereo not drawn)
- EC50 [4]: > 60 µM (not active)
- AC50 [13]: 2.7 µM (active)
- EC50 [6]: 1.15 µM (active)

Compound: O=C(O)c1nn(CCOc2ccccc2F)c(=O)c2ccccc12
- IC50 [3]: > 79 µM (inactive)

Compound: CCc1nnc(NC(=O)c2ccc(-c3ccccc3Cl)o2)s1
- EC50 [8]: 6.73 µM (active)
- EC50 [9]: > 120 µM (not active)
- EC50 [12]: 18.9 µM (active)

Compound: CCCCC/N=C(/C)c1c(O)oc2ccccc2c1=O
- EC50 [8]: 61.4 µM (active)
- EC50 [9]: > 120 µM (not active)
- EC50 [12]: 9.36 µM (active)

Compound: c1ccc(Nc2nc(-c3ccccn3)cs2)cc1
- IC50 [15]: 0.19 µM (active)
- CC50 [16]: > 20 µM (active)

Compound: COc1cccc(N2CCN(CC(=O)NCc3ccccc3)CC2)c1
- AC50 [13]: 1.97 µM (active)

Compound: CCN(CC)c1ccc(CNCc2cccs2)cc1
- AC50 [13]: 0.742 µM (active)

Compound: CN(C)CCNc1ccc(-c2nnc(O)c3ccccc23)cc1[N+](=O)[O-]
- IC50 [3]: > 79 µM (inactive)

Compound: Cc1cc(NC(=O)CCN2C(=O)/C(=C\c3ccccc3)SC2=S)no1
- EC50 [1]: > 350 µM (not active)
- EC50 [2]: > 350 µM (not active)

Compound: COc1cc(OC)c(-c2nn3c(-c4ccco4)nnc3s2)cc1OC
- IC50 [3]: > 79 µM (inactive)

Compound: O=C(COc1ccc([N+](=O)[O-])cc1)Nc1nc(-c2ccccn2)cs1
- EC50 [7]: 5.56 µM (active)
- EC50 [19]: > 120 µM (not active)
- EC50 [20]: > 120 µM (not active)
- IC50 [3]: 11.8 µM (active)
- EC50 [4]: 8.46 µM (active)
- EC50 [6]: 1.79 µM (active)
- EC50 [10]: 13.8 µM (active)
- EC50 [11]: > 150 µM (not active)
- EC50 [21]: 11.8 µM (active)

Compound: O=C(NCCCN1CCOCC1)c1cc(-c2cccs2)on1
- EC50 [1]: 77 µM (active)
- EC50 [2]: > 350 µM (not active)

Compound: Cc1nc2cc(NC(=O)c3ccc(S(=O)(=O)N(C)c4ccccc4)cc3)ccc2o1
- EC50 [8]: 23.9 µM (active)
- EC50 [9]: 26 µM (active)
- EC50 [12]: 15.1 µM (active)

Compound: O=C(N/N=C\c1cccc(Cl)c1)c1ccc(Cn2cccn2)o1
- AC50 [13]: 0.641 µM (active)
